Experimental data: patent publication US6197751A, “Thymosin α1 promotes tissue repair, angiogenesis and cell migration” (The United States of America as represented by the …, priority 1998, dated 2001)
Ends that are not written are not given here.

Experiments:
[1] = tested on: human aortic smooth muscle cells; assay: Boyden chamber migration, aortic smooth muscle cells; assay type: cell-based; settings: for average number of cells that migrated ± SEM: AOSMC
Protocol: (§1) Human umbilical vein endothelial cells (HUVECs) were isolated from freshly delivered cords according to Jaffe et al. (J. Clin. Invest. 52: 2745, 1973) and grown on Nunclon dishes (Nunc, Denmark) in RPMI 1640 (Life Technologies, Gaithersburg, Md.) supplemented with 20% bovine calf serum (Hyclone Laboratories, Logan Utah), 100 U/ml penicillin/streptomycin (Life Technologies, Gaithersburg, Md.), 50 μg/ml gentamycin (Life Technologies, Gaithersburg, Md.), 2.7 μg/ml amphotericin B (fungizone)(Life Technologies, Gaithersburg, Md.), 5 U/ml sodium heparin (Fisher Scientific, Pittsburgh, Pa.) and 200 μg/ml endothelial cell growth supplement (ECGS) (Collaborative Research, Bedford, Mass.). Cells between passage 3 and 5 were used for all experiments. Human coronary artery endothelial cells (HCAECs) were grown on Nunclon dishes in the HUVEC media. Foreskin fibroblasts (Ffs) were grown in DMEM supplemented with 10% fetal bovine serum (Hyclone) on Falcon (Becton Dickinson, N.J.) dishes. HT1080 cells (human fibrosarcoma cell line) were grown in Falcon flasks in DMEM supplemented with 10% fetal bovine serum. Neutrophils were freshly isolated from buffy coats as previously reported (Kibbey et al., J. Cell Phys. 160:185, 1994). Human aortic smooth muscle cells (AOSMCs) were grown in smooth muscle cell media (Clonetics, San Diego, Calif.) on Nunclon dishes.
(§2) Several cell types were tested to determine if the migratory stimulation observed with Tα1 was specific. […] HUVEC migration assays were carried out in Boyden chambers using 12 ,m pore PVP free filters coated with either a 0.1 mg/ml or 0.05 mg/ml solution of collagen IV as previously reported (Malinda et al., FASEB J. 11:474, 1997). Each condition was assayed in triplicate wells at least three times unless indicated. HCAECs, AOSMCs, FFs, HT1080 cells and neutrophils were cultured or isolated and assayed for migration as previously reported (Malinda et al., FASEB J. 11:474, 1997).

[2] = tested on: Monocytes; assay: Boyden chamber migration, monocytes; assay type: cell-based; settings: for average number of cells that migrated ± SEM: Monocytes
Protocol: [The procedure below names another cell line; the source lists this cell line under the same test.] as §2

[3] = tested on: HUVECs; assay: Tube formation assay on Matrigel; assay type: cell-based, human
Protocol: Migration and differentiation during angiogenesis can be studied in vitro using Matrigel, a basement membrane matrix on which HUVECs undergo capillary-like tube formation (Grant et al., J. Cell. Physiol. 153: 614, 1992; Kubota et al., J. Cell Biol. 107: 1589, 1988). The tube formation assay was performed according to Grant et al. (J. Cell. Physiol. 153:614, 1992) with the following modifications. Twenty-four well Nunclon plates were coated with 320 μl of Matrigel (10 mg/ml) and incubated at 37° C. for 30 min to promote gelling. 30,000 HUVECs were resuspended in growth media and added to each well with 1, 10, 100 and 1000 ng of synthetic Tα1, 20 and 200 μg/ml ECGS (a bovine brain extract that contains aFGF and bFGF and acts as a positive control) or media alone. The final serum concentrations were 10% or 5%. After 18 h, plates were fixed with Diff-Quik (Baxter Healthcare Corporation, McGraw Park, Ill.) and the length of the tubes was measured using an Olympus CK2 microscope with a 2× objective connected to a Javelin CCTV camera with a 3.3× coupler and NIH Image 1.57 software. Three random measurements of each of four wells at each culture condition were measured. Each experiment was repeated at least three times.

[4] = tested on: HUVEC; assay: HUVEC migration in Boyden chamber assays; assay type: cell-based, human
Protocol: as §2

[5] = tested on: Neutrophils; assay: Boyden chamber migration, neutrophils; assay type: cell-based; settings: for average number of cells that migrated ± SEM: Neutrophils
Protocol: as §1, §2

[6] = tested on: foreskin fibroblasts; assay: Boyden chamber migration, foreskin fibroblasts; assay type: cell-based; settings: for average number of cells that migrated ± SEM: FF
Protocol: as §1, §2

[7] = tested on: C57Bl/6N female mice; assay: Subcutaneous Matrigel plug assay; assay type: in vivo
Protocol: Since Tα1 enhanced HUVEC migration in vitro, experiments were performed to determine if Tα1 promoted cell migration and vessel formation in vivo. Endothelial cells invade and form vessels in Matrigel plugs containing angiogenic factors (Kibbey et al., J. Cell Phys. 160:185, 1994; Passaniti et al., Lab. Invest. 67: 519, 1992). […] Three random fields were collected and analyzed per plug in each of three experiments. […] Cells migrate into the plug from the area closest to the skin forming vessels (FIG. 5). Plugs containing Tα1 (FIGS. 5C and 5D) show many more cells than in the Matrigel alone (FIG. 5A). Cell morphology was similar to those in plugs containing 10 ng/ml of the positive control ECGS (FIG. 5B).

[8] = tested on: rats; assay: Full thickness punch biopsy wound healing; assay type: in vivo; settings: for reepithelization of the wound / collagen production (Masson's trichrome) / histology of dermis near dermal and epidermal junction: 8 day punch wounds; for wound healing compared to untreated wounds: rats
Protocol: Six full thickness 8 mm punch biopsy wounds were made on the dorsal surface of rats as previously reported (Bhartiya et al., J. Cell. Physiol. 150:312, 1992; Sihhu et al., J. Cell. Physiol. 169:108, 1996) and Tα1 was given topically at the time of wounding (5 μg in 50 μl) and again after 48 hr. Controls for the topical treatment received identical amounts of saline at the time of wounding and at 48 hr. Three rats in each group also received intraperitoneal injections at the time of wounding (60 μg in 300 μl) and again every other day. Controls for these animals received identical amounts of saline i.p. on the same injection schedule. At days 8 and 9 post-wounding, tissue was collected and fixed in 10% buffered formalin (i.p. n=18 samples; topical n=9 samples). The samples were sectioned and stained with H&E and Masson's Trichrome (American Histolabs, Gaithersburg, Md.).

thymosin α1 (SDAAVDTSSEITTKDLKEKKEVVEEAEN; not fully specified; ends and bridges not checked; UniProt P06454 2-29, looked up) [Tα1, 28 amino acid peptide which results from the cleavage of the N-terminal region of prothymosin α1]
average number of cells that migrated ± SEM ([1]; Thymosin α1 1 ng/ml): 1 ± 0.3
average number of cells that migrated ± SEM ([1]; Thymosin α1 10 ng/ml): 1 ± 0.4
average number of cells that migrated ± SEM ([1]; Thymosin α1 100 ng/ml): 0.5 ± 0.5
average number of cells that migrated ± SEM ([1]; Thymosin α1 1000 ng/ml): 1 ± 0.4
migration toward Tα1 ([1]; human aortic smooth muscle cells): did not demonstrate any significant migration
Monocyte migration ([2]; 100 ng/ml): appeared to be inhibited
Monocyte migration ([2]; 1000 ng/ml of Tα1): increased
average number of cells that migrated ± SEM ([2]; Thymosin α1 100 ng/ml): 20 ± 5.4
average number of cells that migrated ± SEM ([2]; Thymosin α1 1000 ng/ml): 80 ± 7.6
tube formation ([3]; 1 or 10 ng/ml Tα1, 5% serum): did not form tubes
tube formation ([3]; 100 and 1000 ng/ml Tα1, 5% serum): formed highly organized tubes
tube formation vs control cells ([3]; 100 or 1000 ng/ml Tα1, 10% serum): formed more tubes than control cells
average length of tubes ([3]; 100 or 1000 ng/ml Tα1, 10% serum, 18 h, media alone 208 μm): 316-324 μm
increase in HUVEC migration ([4]; Tα1 in the lower wells, filters coated with collagen IV): 3-6 fold
checkerboard assay, chemoattraction vs chemokinesis ([4]; increasing Tα1 in lower well vs in upper and lower wells): More cells migrated along the concentration gradient of Tα1 in the lower well
average number of cells that migrated ± SEM ([5]; Thymosin α1 1 ng/ml): 138.7
average number of cells that migrated ± SEM ([5]; Thymosin α1 10 ng/ml): 138.7 ± 20
average number of cells that migrated ± SEM ([5]; Thymosin α1 100 ng/ml): 149.3 ± 13.5
average number of cells that migrated ± SEM ([5]; Thymosin α1 1000 ng/ml): 149.3 ± 27
migration toward Tα1 ([5]; neutrophils): did not demonstrate any significant migration
average number of cells that migrated ± SEM ([6]; Thymosin α1 1 ng/ml): 5 ± 0.4
average number of cells that migrated ± SEM ([6]; Thymosin α1 10 ng/ml): 5 ± 0.4
average number of cells that migrated ± SEM ([6]; Thymosin α1 100 ng/ml): 4.8 ± 0.7
average number of cells that migrated ± SEM ([6]; Thymosin α1 1000 ng/ml): 5.2 ± 0.5
migration toward Tα1 ([6]; Foreskin fibroblasts): did not demonstrate any significant migration
cell migration into plugs ([7]; 1 μg/ml and 500 μg/ml): a decrease in migration was observed
cell migration and angiogenesis in vivo vs Matrigel alone ([7]; 5 μg/ml of Tα1): always significantly higher than Matrigel alone
reepithelization of the wound ([8]; intraperitoneal on alternate days 60 μg/300 μl): Complete reepithelization
wound healing compared to untreated wounds ([8]; intraperitoneal, 60 μg in 300 μl every other day): significantly accelerated wound healing
collagen production (Masson's trichrome) ([8]; intraperitoneal): enhanced collagen production
histology of dermis near dermal and epidermal junction ([8]; intraperitoneal): capillary ingrowth in granulation tissue and hypercellular dermis
reepithelization of the wound ([8]; topical 5 μg/50 μl): complete reepithelization of the wound with 2-3 layers of thick epidermis
wound healing compared to untreated wounds ([8]; topical, 5 μg in 50 μl at wounding and after 48 hr): significantly accelerated wound healing
collagen production (Masson's trichrome) ([8]; topical): enhanced collagen production
histology of dermis near dermal and epidermal junction ([8]; topical): capillary ingrowth in granulation tissue and hypercellular dermis
